Laboratory results published in patent publication US8268961B2, “Antibacterial peptides and analogues thereof” (Universita Degli Studi di Siena, priority 2004, dated 2012).
Entries after “also recorded” stand apart in the source; their conditions may differ. Like-named read-outs stand apart in the source and are kept apart here. Positions of bridges follow the written chain, without caps; N, C: chain ends. Chains are numbered I, II in the order given. No end group written: not given here.

Assays:
[1] = tested on: E. coli plasmid vector pCEP4 DNA; assay: DNA binding assay (gel retardation)
Protocol: In an attempt to clarify the molecular mechanism of action, the authors examined the binding properties on DNA exerted by M6 dendrimeric peptide and magainin 2, an antimicrobial peptide which has a pore-forming activity on the cell membrane. The DNA binding abilities of M6 and magainin 2 were examined by analyzing the electrophoretic mobility of DNA bands at the various weight ratios of peptides to DNA on a 1% (w/v) agarose gel.
Gel-retardation experiments were performed by mixing 200 ng of the E. coli plasmid vector pCEP4 (Invitrogen) with increasing amounts of M6 peptide in 20 μl of binding buffer (5% glycerol, 10 mM Tris-HCl (pH 8.0), 1 mM EDTA, 1 mM DTT, 20 mM KCl and 50 μg/ml BSA). The reaction mixtures were incubated at room temperature for 1 h. Subsequently, 4 μl of native loading buffer was added (40% saccarose, 0.25% bromophenol blue) and an aliquot of 12 μl was applied to a 1% agarose gel electrophoresis in 1 mM Tris borate-EDTA buffer.

[2] = tested on: Pichia pastoris yeast strain X33; assay: Effect on Pichia pastoris yeast colonies; type: cell-based
Protocol: To a volume of 50 μl of culture of Pichia pastoris grown 24 hour at 30° C. in YPD (Yeast Extract/Peptone/Dextrose) medium, 50 μl of MAP peptides (2 mg/ml) were added and left in incubation 150 min at 37° C. Subsequently, 50 μl of each incubation were plated on YPD solid medium and it was allowed to grow for 48 hours at 30° C. The number of colonies grown was compared with a control, where the yeast was not treated with the MAP.

[3] = LPS binding by Plasmon Surface Resonance (Biacore); details: M6 immobilised on BIACORE sensorchip
Protocol: FIG. 11. Binding analysis between MAP M6 peptide and LPS in BIACORE. […] On the y-axis are shown the Units of Response derived from the binding between LPS and M6 as a function of time expressed in seconds (on the x-axis)
The ability of MAP peptides to perforate the bacterial membrane was evaluated measuring the activity of cytoplasmatic beta-galactosidase (24) in surpernatants of E. coli strain ML-35 incubated with the peptide and using p-nitrophenyl-β-D-galactopyranoside (pNPG) as a substrate. pNPG is digested by beta-galactosidase, therefore releasing p-nitro-phenolate detectable by spectrophotometric reading at 420 nm (FIG. 10). […] The activity of dendrimeric peptides against the inner membrane was evaluated at concentrations of 16, 32 and 64 μg/ml. All dendrimeric peptides permeabilized bacterial inner membrane at 16 μg/ml (FIG. 9). Permeabilization occurred after a lag of less than 1 minute, and the rate of permeabilization depended on peptide concentration (not shown). Moreover, the ability of the M6 MAP peptide to bind the bacterial lipopolysaccharide (LPS) was assayed by Plasmon Surface Resonance in a Biacore 1000 instrument (FIG. 11) using a protocol perfected by the authors (26).

[4] = tested on: Staphylococcus aureus ATCC 25923; type: cell-based; details: Staphylococcus aureus ATCC 25923, reference strain
Procedure, shortened: (§1)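 MIC, given in molar units, was taken as the lowest concentration without visible growth after 24 h at 37° C. Testing followed the NCCLS microdilution method using cation-supplemented Mueller-Hinton broth and 5×10^4 CFU per well.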

[5] = tested on: Escherichia coli W03BG0025; type: cell-based
Procedure, shortened: (§2)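 Visual end point: lowest molar concentration stopping visible bacterial growth in cation-supplemented MH broth, standard microdilution, 5×10^4 CFU inoculum per well, 24 h incubation at 37° C.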

[6] = tested on: Klebsiella pneumoniae W03BG0019; type: cell-based
Procedure, shortened: as §2

[7] = tested on: Escherichia coli W03NO0013; type: cell-based
Procedure, shortened: as §2

[8] = tested on: Klebsiella pneumoniae W99FI0057; type: cell-based; details: W99FI0057
Procedure, shortened: as §2

[9] = tested on: Escherichia coli W99FI0077; type: cell-based; details: W99FI0077
Procedure, shortened: as §2

[10] = tested on: Citrobacter freundii W99FI00007; type: cell-based
Procedure, shortened: as §2

[11] = tested on: Acinetobacter baumannii AB7MG; type: cell-based
Procedure, shortened: as §2

[12] = tested on: Pseudomonas aeruginosa 885149; type: cell-based; details: 885149
Procedure, shortened: as §2

[13] = tested on: Escherichia coli ATCC 25922; type: cell-based; details: ATCC 25922
Procedure, shortened: as §2

[14] = tested on: Proteus mirabilis W03VA1144; type: cell-based
Procedure, shortened: as §2

[15] = tested on: Klebsiella oxytoca W99FI00049; type: cell-based
Procedure, shortened: as §2

[16] = tested on: Pseudomonas aeruginosa 891; type: cell-based; details: 891
Procedure, shortened: as §2

[17] = tested on: Burkholderia cepacia SMC71; type: cell-based
Procedure, shortened: as §2

[18] = tested on: Acinetobacter baumannii AB1MG; type: cell-based
Procedure, shortened: as §2

[19] = tested on: Enterobacter cloacae W03AN0041; type: cell-based
Procedure, shortened: as §2

[20] = tested on: Klebsiella pneumoniae W03NO0078; type: cell-based
Procedure, shortened: as §2

[21] = tested on: Pseudomonas aeruginosa ATCC27853; type: cell-based; details: ATCC27853
Procedure, shortened: as §1

[22] = tested on: Pseudomonas aeruginosa VA463/98; type: cell-based
Procedure, shortened: as §2

[23] = tested on: Enterobacter aerogenes W03BG0067; type: cell-based
Procedure, shortened: as §2

[24] = tested on: Staphylococus aureus MIU-68A; type: cell-based, Staphylococcus aureus
Text: MIC is defined as the lowest concentration, in an antibiotic dilution range, that inhibits visible bacterial growth. The importance of MIC sensitivity test is based on the principle that in vitro sensitivity provides a predictive indication of the in vivo efficacy of the antibiotic therapy. Values are expressed as molar concentration and compared to MIC values obtained with commercially available antibiotics such as amikacin, ceftriaxone and levofloxacin (Table 3).
Reference strains (Escherichia coli ATCC 25922, Pseudomonas aeruginosa ATCC 27853, Staphylococus aureus ATCC 25923 and Chryseobacterium meningosepticum CCUG 4310) and several recent clinical isolates (including multidrug-resistant ones) of various species (Table 2) were used for conventional susceptibility testing experiments. Minimum Inhibitory Concentration (MIC) was determined by a standard microdilution assay as recommended by the National Commitee for Clinical Laboratory Standards (NCCLS) using cation-supplemented Mueller-Hinton (MH) broth (Oxoid Ltd. Basingstoke, UK) and a bacterial inoculum of 5×10^4 CFU per well, in a final volume of 100 μl. Results were recorded by visual inspection after 24 h of incubation at 37° C.

Substance: I: QKKIRVRLSAKKA-OH / II: QKKIRVRLSAK / III: QKKIRVRLSA / IV: QKKIRVRLSA (amide I:11-IV:C, I:12-II:C, II:11-III:C) [M6, QKKIRVRLSA]
- Weight ratio of peptide to DNA at which migration of DNA is inhibited ([1]; 200 ng pCEP4, 1% agarose gel, 1 h room temperature): > 0.2
- DNA binding tightness relative to magainin 2 ([1]; from gel retardation weight ratios): over 25 times
- Number of yeast colonies vs negative control [2]: did not differ from the negative control
- Binding to bacterial lipopolysaccharide (LPS), sensorgram [3]: effectively binds; also recorded: rapid binding
- MIC (Molarity) [4]: >4.9e-05 M
- MIC (Molarity) ([4]; listed as QKKIRVRLSA): ~10^−5 M
- MIC (Molarity) [5]: 1.5 µM
- MIC (Molarity) [6]: 1.5 µM
- MIC (Molarity) [7]: 1.5 µM
- MIC (Molarity) [8]: 0.76 µM
- MIC (Molarity) [9]: 1.5 µM
- MIC (Molarity) [10]: 3 µM
- MIC (Molarity) [11]: 6 µM
- MIC (Molarity) [12]: 1.5 µM
- MIC (Molarity) [13]: 1.5 µM
- MIC (Molarity) [14]: 12 µM
- MIC (Molarity) [15]: 12 µM
- MIC (Molarity) [16]: 1.5 µM
- MIC (Molarity) [17]: 12 µM
- MIC (Molarity) [18]: 3 µM
- MIC (Molarity) [19]: 0.76 µM
- MIC (Molarity) [20]: 3 µM
- MIC (Molarity) [21]: 0.76 µM
- MIC (Molarity) [22]: 0.76 µM
- MIC (Molarity) [23]: 1.5 µM
- MIC (Molarity) [24]: 49 µM
